Laboratory results from US12577234B2, “Antagonists of the muscarinic acetylcholine receptor M4” (Vanderbilt University, priority 2017, dated 2026).

Target: T1, human mAChR M4 (Homo sapiens, UniProt P08173)
T1 construct: expressed in transfected cells; host or cells: CHO-K1 (ATCC), stably co-expressing chimeric G protein Gqi5
T1 sequence (P08173 1-479): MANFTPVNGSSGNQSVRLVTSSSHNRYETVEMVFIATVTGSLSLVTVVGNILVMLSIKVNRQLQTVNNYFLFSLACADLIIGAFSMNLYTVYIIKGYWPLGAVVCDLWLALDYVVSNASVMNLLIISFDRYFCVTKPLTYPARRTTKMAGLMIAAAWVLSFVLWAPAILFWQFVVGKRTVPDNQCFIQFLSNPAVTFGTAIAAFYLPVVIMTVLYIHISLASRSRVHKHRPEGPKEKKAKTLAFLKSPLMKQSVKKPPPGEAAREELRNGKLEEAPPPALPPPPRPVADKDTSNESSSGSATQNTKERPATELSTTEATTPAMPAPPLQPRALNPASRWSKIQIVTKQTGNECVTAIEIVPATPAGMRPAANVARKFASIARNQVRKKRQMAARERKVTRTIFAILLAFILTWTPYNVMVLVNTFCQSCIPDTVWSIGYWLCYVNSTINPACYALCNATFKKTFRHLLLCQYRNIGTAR
Assay: mAChR M4 cell-based functional assay (calcium mobilization, EC80 acetylcholine), human M4
Conditions: Table 9; for IC50: M4/Gqi5/CHO-K1 cells, decrease of EC80 acetylcholine response; for Emin: human M4, % ACh maximum at 30 μM
Procedure, shortened: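 CHO-K1 cells stably expressing human M4 with chimeric Gqi5; intracellular calcium rise read on FDSS as fluorescence static ratio at 1 Hz. Compounds in 10-point 1:3 dilution series; IC50 taken as concentration-dependent decrease of the EC80 acetylcholine response, four-parameter logistic fit.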

| Compound | IC50 | Emin |
| --- | --- | --- |
| Fc1ccc(Cl)c(-c2ccc(NC[C@H]3C[C@@H]4CN(CC5CC6C=CC5C6)C[C@@H]4C3)nn2)c1 (stereo partly drawn) [Compound 69, N-[[(3aR,5s,6aS)-2-(5-bicyclo[2.2.1]hept-2-enylmethyl)-3,3a,4,5,6,6a-hexahydro-1H-cyclopenta[c]pyrrol-5-yl]methyl]-6-(2-chloro-5-fluoro-phenyl)pyridazin-3-amine] | 0.0359 µM | 2.74% |
| CC(C)(C)CCN1C[C@H]2C[C@H](CNc3ccc(-c4cc(F)ccc4Cl)nn3)C[C@H]2C1 [Compound 70, N-[[(3aR,5s,6aS)-2-(3,3-dimethylbutyl)-3,3a,4,5,6,6a-hexahydro-1H-cyclopenta[c]pyrrol-5-yl]methyl]-6-(2-chloro-5-fluoro-phenyl)pyridazin-3-amine] | 0.0192 µM | 2.64% |
| Fc1ccc(Cl)c(-c2ccc(NC[C@H]3C[C@@H]4CN(CC5CCOCC5)C[C@@H]4C3)nn2)c1 [Compound 71, N-[[(3aR,5s,6aS)-2-(tetrahydropyran-4-ylmethyl)-3,3a,4,5,6,6a-hexahydro-1H-cyclopenta[c]pyrrol-5-yl]methyl]-6-(2-chloro-5-fluoro-phenyl)pyridazin-3-amine] | 0.364 µM | 3.81% |
| Cc1nn(C)cc1-c1ccc(NC[C@H]2C[C@@H]3CN(CC4CCCCC4)C[C@@H]3C2)nn1 [Compound 72, N-[[(3aR,5s,6aS)-2-(cyclohexylmethyl)-3,3a,4,5,6,6a-hexahydro-1H-cyclopenta[c]pyrrol-5-yl]methyl]-6-(1,3-dimethylpyrazol-4-yl)pyridazin-3-amine] | 0.201 µM | 4.02% |
| Cc1cccnc1CN1C[C@H]2C[C@H](CNc3ccc(-c4cn(C)nc4C)nn3)C[C@H]2C1 [Compound 73, N-[[(3aR,5s,6aS)-2-[(3-methyl-2-pyridyl)methyl]-3,3a,4,5,6,6a-hexahydro-1H-cyclopenta[c]pyrrol-5-yl]methyl]-6-(1,3-dimethylpyrazol-4-yl)pyridazin-3-amine] | 2.01 µM | 9.23% |
| Cc1cnn(C)c1-c1ccc(NC(=O)C2C[C@@H]3CN(CCC(C)(C)C)C[C@@H]3C2)nn1 (stereo partly drawn) [Compound 74, (3aR,6aS)-2-(3,3-Dimethylbutyl)-N-[6-(2,4-dimethylpyrazol-3-yl)pyridazin-3-yl]-3,3a,4,5,6,6a-hexahydro-1H-cyclopenta[c]pyrrole-5-carboxamide] | 0.263 µM | 3.37% |
| O=C(Nc1ccc(-c2ccc(F)cc2Cl)nn1)C1C[C@@H]2CN(CC3CC4C=CC3C4)C[C@@H]2C1 (stereo partly drawn) [Compound 75, (3aR,6aS)-2-(5-bicyclo[2.2.1]hept-2-enylmethyl)-N-[6-(2-chloro-4-fluoro-phenyl)pyridazin-3-yl]-3,3a,4,5,6,6a-hexahydro-1H-cyclopenta[c]pyrrole-5-carboxamide] | 2.78 µM | 3.25% |
| Cc1cnn(C)c1-c1ccc(NC(=O)C2CC3CN(CC(C)C(C)(C)C)CC3C2)nn1 (stereo not shown) [Compound 76, N-[6-(2,4-dimethylpyrazol-3-yl)pyridazin-3-yl]-2-(2,3,3-trimethylbutyl)-3,3a,4,5,6,6a-hexahydro-1H-cyclopenta[c]pyrrole-5-carboxamide] | 1.04 µM | 4.09% |
| Cc1cnn(C)c1-c1ccc(NC(=O)C2CC3CN(CC4CC5C=CC4C5)CC3C2)nn1 (stereo not shown) [Compound 77, 2-(5-bicyclo[2.2.1]hept-2-enylmethyl)-N-[6-(2,4-dimethylpyrazol-3-yl)pyridazin-3-yl]-3,3a,4,5,6,6a-hexahydro-1H-cyclopenta[c]pyrrole-5-carboxamide] | 0.408 µM | 3.86% |
| Cc1cnn(C)c1-c1ccc(OCC2C[C@@H]3CN(CCC(C)(C)C)C[C@@H]3C2)nn1 (stereo partly drawn) [Compound 78, (3aR,6aS)-2-(3,3-Dimethylbutyl)-5-[[6-(2,4-dimethylpyrazol-3-yl)pyridazin-3-yl]oxymethyl]-3,3a,4,5,6,6a-hexahydro-1H-cyclopenta[c]pyrrole] | 0.105 µM | 4.35% |
| Cc1cnn(C)c1-c1ccc(OCC2C[C@@H]3CN(CC45CC6CC(CC(C6)C4)C5)C[C@@H]3C2)nn1 (stereo partly drawn) [Compound 79, (3sR,6aS)-2-(1-adamantylmethyl)-5-[[6-(2,4-dimethylpyrazol-3-yl)pyridazin-3-yl]oxymethyl]-3,3a,4,5,6,6a-hexahydro-1H-cyclopenta[c]pyrrole] | 0.119 µM | 3.76% |
| Cc1cnn(C)c1-c1ccc(OCC2C[C@@H]3CN(CC4CC5C=CC4C5)C[C@@H]3C2)nn1 (stereo partly drawn) [Compound 80, (3aR,6aS)-2-(5-bicyclo[2.2.1]hept-2-enylmethyl)-5-[[6-(2,4-dimethylpyrazol-3-yl)pyridazin-3-yl]oxymethyl]-3,3a,4,5,6,6a-hexahydro-1H-cyclopenta[c]pyrrole] | 0.0734 µM | 4.07% |
| CCC(C)CN1C[C@H]2CC(COc3ccc(-c4c(C)cnn4C)nn3)C[C@H]2C1 (stereo partly drawn) [Compound 81, (3aR,6aS)-5-[[6-(2,4-dimethylpyrazol-3-yl)pyridazin-3-yl]oxymethyl]-2-(2-methylbutyl)-3,3a,4,5,6,6a-hexahydro-1H-cyclopenta[c]pyrrole] | 0.904 µM | 4.54% |
| CCCC(C)CN1C[C@H]2CC(COc3ccc(-c4c(C)cnn4C)nn3)C[C@H]2C1 (stereo partly drawn) [Compound 82, (3aR,6aS)-5-[[6-(2,4-dimethylpyrazol-3-yl)pyridazin-3-yl]oxymethyl]-2-(2-methylpentyl)-3,3a,4,5,6,6a-hexahydro-1H-cyclopenta[c]pyrrole] | 0.538 µM | 4.50% |
| Cc1cnn(C)c1-c1ccc(OCC2C[C@@H]3CN(CC4CCCCC4)C[C@@H]3C2)nn1 (stereo partly drawn) [Compound 83, (3aR,6aS)-2-(cyclohexylmethyl)-5-[[6-(2,4-dimethylpyrazol-3-yl)pyridazin-3-yl]oxymethyl]-3,3a,4,5,6,6a-hexahydro-1H-cyclopenta[c]pyrrole] | 0.222 µM | 3.93% |
| Cc1cnn(C)c1-c1ccc(OCC2C[C@@H]3CN(CC4CCOCC4)C[C@@H]3C2)nn1 (stereo partly drawn) [Compound 84, (3aR,6aS)-5-[[6-(2,4-dimethylpyrazol-3-yl)pyridazin-3-yl]oxymethyl]-2-(tetrahydropyran-4-ylmethyl)-3,3a,4,5,6,6a-hexahydro-1H-cyclopenta[c]pyrrole] | 3.09 µM | 10.9% |
| Cc1cnn(C)c1-c1ccc(OCC2C[C@@H]3CN(CC4CCCOC4)C[C@@H]3C2)nn1 (stereo partly drawn) [Compound 85, (3aR,6aS)-5-[[6-(2,4-dimethylpyrazol-3-yl)pyridazin-3-yl]oxymethyl]-2-(tetrahydropyran-3-ylmethyl)-3,3a,4,5,6,6a-hexahydro-1H-cyclopenta[c]pyrrole] | 4.6 µM | 14.2% |
| Cc1cnn(C)c1-c1ccc(OCC2C[C@@H]3CN(Cc4ccccc4)C[C@@H]3C2)nn1 (stereo partly drawn) [Compound 86, (3aR,6aS)-2-benzyl-5-[[6-(2,4-dimethylpyrazol-3-yl)pyridazin-3-yl]oxymethyl]-3,3a,4,5,6,6a-hexahydro-1H-cyclopenta[c]pyrrole] | 2.86 µM | 9.09% |
| Cc1cnn(C)c1-c1ccc(OCC2C[C@@H]3CN(Cc4ccccc4F)C[C@@H]3C2)nn1 (stereo partly drawn) [Compound 87, (3aR,6aS)-5-[[6-(2,4-dimethylpyrazol-3-yl)pyridazin-3-yl]oxymethyl]-2-[(2-fluorophenyl)methyl]-3,3a,4,5,6,6a-hexahydro-1H-cyclopenta[c]pyrrole] | 4.01 µM | 7.39% |
| Cc1cnn(C)c1-c1ccc(OCC2C[C@@H]3CN(Cc4ccc(F)cc4)C[C@@H]3C2)nn1 (stereo partly drawn) [Compound 88, (3R,6aS)-5-[[6-(2,4-dimethylpyrazol-3-yl)pyridazin-3-yl]oxymethyl]-2-[(4-fluorophenyl)methyl]-3,3a,4,5,6,6a-hexahydro-1H-cyclopenta[c]pyrrole] | 4.19 µM | 9.57% |
| Cc1cnn(C)c1-c1ccc(OCC2C[C@@H]3CN(Cc4ccccn4)C[C@@H]3C2)nn1 (stereo partly drawn) [Compound 89, (3aR,6aS)-5-[[6-(2,4-dimethylpyrazol-3-yl)pyridazin-3-yl]oxymethyl]-2-(2-pyridylmethyl)-3,3a,4,5,6,6a-hexahydro-1H-cyclopenta[c]pyrrole] | 8.08 µM | 18.1% |
| Cc1cccnc1CN1C[C@H]2CC(COc3ccc(-c4c(C)cnn4C)nn3)C[C@H]2C1 (stereo partly drawn) [Compound 90, (3aR,6aS)-5-[[6-(2,4-dimethylpyrazol-3-yl)pyridazin-3-yl]oxymethyl]-2-[(3-methyl-2-pyridyl)methyl]-3,3a,4,5,6,6a-hexahydro-1H-cyclopenta[c]pyrrole] | 1.43 µM | 7.98% |
| Cc1cnn(C)c1-c1ccc(OCC2C[C@@H]3CN(Cc4ccc5c(c4)OCO5)C[C@@H]3C2)nn1 (stereo partly drawn) [Compound 91, (3aR,6aS)-2-(1,3-benzodioxol-5-ylmethyl)-5-[[6-(2,4-dimethylpyrazol-3-yl)pyridazin-3-yl]oxymethyl]-3,3a,4,5,6,6a-hexahydro-1H-cyclopenta[c]pyrrole] | 0.371 µM | 4.18% |
